pIC50: −log10 of the molar value. Numbered stars: 1 amine (or outer) side, 2 acyl side, 3 side chain; on linkers, the order of the positions; unused ones are H or OH. Bridge positions count the residues as written; N and C are the ends. Square brackets hold non-standard residues; d marks the D form. Peptide text beside a SMILES is read from it. * marks the point of attachment. Tartaroyl(2R,3R-(OAc)2) = CC(=O)O[C@@H](C(=O)[*:1])[C@@H](OC(C)=O)C(=O)[*:2]; Phe(2,4-Cl2) = N[C@@H](Cc1ccc(Cl)cc1Cl)C(=O)O; Bip = N[C@@H](Cc1ccc(-c2ccccc2)cc1)C(=O)O; dBip = N[C@H](Cc1ccc(-c2ccccc2)cc1)C(=O)O; dPhe(4-NH2) = Nc1ccc(C[C@@H](N)C(=O)O)cc1; Phe(4-NH2) = Nc1ccc(C[C@H](N)C(=O)O)cc1; Phe(4-Me) = Cc1ccc(C[C@H](N)C(=O)O)cc1; dPhe(2-Me) = Cc1ccccc1C[C@@H](N)C(=O)O; d(hPhe) = N[C@H](CCc1ccccc1)C(=O)O; 3Pal = N[C@@H](Cc1cccnc1)C(=O)O; 2Thi = N[C@@H](Cc1cccs1)C(=O)O; d2Thi = N[C@H](Cc1cccs1)C(=O)O; Suc = O=C(CCC(=O)[*:2])[*:1]; NHCH2SO3H = O=S(=O)(O)CN*; Nphe = O=C(O)CNCc1ccccc1; Ac3c = NC1(C(=O)O)CC1; Ava = NCCCCC(=O)O; Bn = c1ccc(C*)cc1; OtBu = CC(C)(C)O*; βAla = NCCC(=O)O; tBu = CC(C)(C)*

T1 sequence (P01375 77-233 limits assumed, species assumed): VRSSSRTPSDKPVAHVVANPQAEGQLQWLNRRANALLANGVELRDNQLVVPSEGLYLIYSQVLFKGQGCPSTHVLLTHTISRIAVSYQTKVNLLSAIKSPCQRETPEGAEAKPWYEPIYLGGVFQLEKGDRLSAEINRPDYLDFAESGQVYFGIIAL

One assay has as its target T1, TNFα / TNFα receptor (TNFα R1/Fc) (Homo sapiens, UniProt P01375).
T1 construct: purchased R&D Systems
The experiment in a line: Inhibition of binding of TNFα to the TNFα receptor (plate ELISA competition). Particulars: Activity (IC50, inhibition of TNFα binding to TNFα R1/Fc), Table 2. Summed up:
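Plates were coated with TNFα at 15 nM. Test compound and 8.33 nM receptor-Fc (PBST, 2% DMSO) were first mixed in solution for 30 min at room temperature, then transferred to the plates for another 30 min. Competition was read by absorbance at 450 nm after HRP anti-human IgG Fc detection with TMB.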
On the technique in general: An ELISA detects its analyte on a solid surface through an enzyme-linked reagent.
The molecule `O=C1COc2ccc(cc2)C[C@@H](C(=O)N2CCC[C@@H]2C(=O)O)NC(=O)[C@@H](CCc2ccccc2)NC(=O)[C@H](Cc2ccc(-c3ccccc3)cc2)NC(=O)[C@@H](Cc2cccs2)N1` [Compound 303] showed a pIC50 of 4.52 to 5.00.

The same assay, now with this note: Table 2; read-out: Activity (IC50, inhibition of TNFα binding to TNFα R1/Fc).
With `O=C1COc2ccc(cc2)C[C@@H](C(=O)O)NC(=O)[C@H](Cc2ccccc2)NC(=O)[C@@H](Cc2ccc(-c3ccccc3)cc2)NC(=O)[C@H](Cc2cccs2)N1` [Compound 214], the pIC50 was more than 5.00.

As for `O=C1CCC(=O)N[C@H](Cc2cccs2)C(=O)N(Cc2ccccc2)CC(=O)N[C@H](Cc2ccccc2)C(=O)N[C@H](C(=O)O)Cc2ccc(cc2)N1` [Compound 101] ([d2Thi][Nphe][dF][Phe(4-NH2)]-OH; linker N-4 via Suc), the pIC50 is less than 4.00.

As for `COc1ccc(C[C@H]2NC(=O)[C@H](Cc3ccc(-c4ccccc4)cc3)NC(=O)[C@@H](Cc3cccs3)NC(=O)COc3ccc(cc3)C[C@@H](C(=O)O)NC2=O)cc1` [Compound 535], the pIC50 was less than 4.00.

Take `O=C1COc2ccc(cc2)C[C@@H](C(=O)O)NC(=O)[C@H](CCc2ccccc2)NC(=O)[C@@H](Cc2ccc(-c3ccccc3)cc2)NC(=O)[C@H](Cc2ccc(C(F)(F)F)cc2)N1` [Compound 691]: the pIC50 was more than 5.00.

On to `COc1ccc(C[C@@H]2NC(=O)[C@@H](Cc3cccs3)NC(=O)COc3ccc(cc3)C[C@@H](C(=O)O)NC(=O)[C@@H](CCc3ccccc3)NC2=O)cc1OC` [Compound 540], for which the pIC50 was less than 4.00.

In the case of `O=C(O)CCNC(=O)[C@@H]1Cc2ccc(cc2)NC(=O)CCC(=O)N[C@H](Cc2ccccc2)C(=O)N[C@@H](Cc2ccc(-c3ccccc3)cc2)C(=O)N[C@H](CCc2ccccc2)C(=O)N1` [Compound 459] ([dF][Bip][d(hPhe)][Phe(4-NH2)][βAla]-OH; linker N-4 via Suc), the pIC50 is less than 4.00.

For `O=C(O)CNC(=O)[C@@H]1Cc2ccc(cc2)NC(=O)CCC(=O)N[C@H](Cc2ccccc2)C(=O)N[C@@H](Cc2ccc(-c3ccccc3)cc2)C(=O)N[C@H](CCc2ccccc2)C(=O)N1` [Compound 462] ([dF][Bip][d(hPhe)][Phe(4-NH2)]G-OH; linker N-4 via Suc), the pIC50 was less than 4.00.

For the molecule `O=C1N[C@@H](Cc2ccccc2)C(=O)N[C@@H](C(=O)O)Cc2ccc(cc2)NC(=O)[C@H](O)[C@@H](O)C(=O)N[C@@H](Cc2cccs2)C(=O)N[C@H]1Cc1ccc(-c2ccccc2)cc1` [Compound 280], the pIC50 was less than 4.00.

As for `O=C1COc2ccc(cc2)C[C@@H](C(=O)O)NC(=O)[C@H](Cc2ccc(F)cc2)NC(=O)[C@@H](Cc2ccc(-c3ccccc3)cc2)NC(=O)[C@H](Cc2ccncc2)N1` [Compound 637], the pIC50 is more than 5.00.

Turning to `COc1cccc(C[C@@H]2NC(=O)[C@H](Cc3cccs3)NC(=O)COc3ccc(cc3)C[C@@H](C(=O)O)NC(=O)[C@H](Cc3ccccc3)NC2=O)c1` [Compound 408], the pIC50 was less than 4.00.

Take `O=C1CCC(=O)N[C@@H](Cc2cccs2)C(=O)N[C@H](Cc2ccc(-c3ccccc3)cc2)C(=O)N[C@H](Cc2ccccc2)C(=O)N[C@@H](C(=O)O)Cc2ccc(cc2)N1` [Compound 501] ([2Thi][dBip][dF][dPhe(4-NH2)]-OH; linker N-4 via Suc): the pIC50 is less than 4.00.

On to `CC(=O)O[C@H]1C(=O)Nc2ccc(cc2)C[C@H](C(=O)O)NC(=O)[C@@H](Cc2ccccc2)NC(=O)[C@H](Cc2ccc(Cl)cc2Cl)NC(=O)[C@@H](Cc2cccs2)NC(=O)[C@@H]1OC(C)=O` [Compound 234] ([d2Thi][Phe(2,4-Cl2)][dF][dPhe(4-NH2)]-OH; linker N-4 via Tartaroyl(2R,3R-(OAc)2)), for which the pIC50 was less than 4.00.

As for `O=C1COc2ccc(cc2)C[C@@H](C(=O)O)NC(=O)[C@H](Cc2cccc(F)c2)NC(=O)[C@@H](Cc2ccc(-c3ccccc3)cc2)NC(=O)[C@H](Cc2cccs2)N1` [Compound 626], the pIC50 is less than 4.00.

For the molecule `Cc1ccc(C[C@@H]2NC(=O)[C@@H](Cc3cccs3)NC(=O)CCC(=O)Nc3ccc(cc3)C[C@@H](C(=O)O)NC(=O)[C@@H](Cc3ccccc3)NC2=O)cc1` [Compound 103] ([d2Thi][Phe(4-Me)][dF][Phe(4-NH2)]-OH; linker N-4 via Suc), the pIC50 was less than 4.00.

For the molecule `O=C1CCC(=O)N[C@H](CCc2ccccc2)C(=O)N[C@@H](Cc2ccc(-c3ccccc3)cc2)C(=O)N[C@H](Cc2ccccc2)C(=O)N[C@H](C(=O)N[C@@H](Cc2ccccc2)C(=O)NCS(=O)(=O)O)Cc2ccc(cc2)N1` [Compound 542] ([d(hPhe)][Bip][dF][Phe(4-NH2)]F-NHCH2SO3H; linker N-4 via Suc), the pIC50 was more than 5.00.

On to `O=C1CCC(=O)N[C@H](Cc2cccs2)C(=O)N[C@@H](Cc2ccc(-c3ccccc3)cc2)C(=O)N(Cc2ccccc2)CC(=O)N[C@H](C(=O)O)Cc2ccc(cc2)N1` [Compound 55] ([d2Thi][Bip][Nphe][Phe(4-NH2)]-OH; linker N-4 via Suc), for which the pIC50 was less than 4.00.

For the molecule `O=C1CCC(=O)N[C@H](Cc2cccs2)C(=O)N[C@@H](Cc2ccc(-c3ccccc3)cc2)C(=O)N[C@H](CO)C(=O)N[C@H](C(=O)O)Cc2ccc(cc2)N1` [Compound 61] ([d2Thi][Bip][dS][Phe(4-NH2)]-OH; linker N-4 via Suc), the pIC50 is less than 4.00.

Consider `O=C1COc2ccc(cc2)C[C@@H](C(=O)NCCO)NC(=O)[C@@H](CCc2ccccc2)NC(=O)[C@H](Cc2ccc(-c3ccccc3)cc2)NC(=O)[C@@H](Cc2cccs2)N1` [Compound 322], for which the pIC50 was 4.52 to 5.00.

Turning to `O=C1COc2ccc(cc2)C[C@@H](C(=O)O)NC(=O)[C@@H](CCc2ccccc2)NC(=O)[C@H](Cc2ccc(-c3ccccc3)cc2)NC(=O)C(c2ccc(Br)cc2)N1` (stereo partly shown) [Compound 517], the pIC50 is 4.52 to 5.00.

In the case of `O=C1COc2ccc(cc2)C[C@@H](C(=O)O)NC(=O)[C@@H](CCc2ccccc2)NC(=O)[C@H](Cc2ccc(Cl)cc2Cl)NC(=O)[C@@H](CCc2ccccc2)N1` [Compound 149], the pIC50 was 4.52 to 5.00.

In the case of `Cc1ccccc1C[C@H]1NC(=O)[C@H](Cc2ccc(-c3ccccc3)cc2)NC(=O)[C@@H](Cc2cccs2)NC(=O)CCC(=O)Nc2ccc(cc2)C[C@@H](C(=O)O)NC1=O` [Compound 80] ([d2Thi][Bip][dPhe(2-Me)][Phe(4-NH2)]-OH; linker N-4 via Suc), the pIC50 was less than 4.00.

Regarding `CC(C)(C)OC(=O)C[C@H]1NC(=O)[C@H](Cc2ccc(-c3ccccc3)cc2)NC(=O)[C@@H](Cc2cccs2)NC(=O)CCC(=O)Nc2ccc(cc2)C[C@@H](C(=O)O)NC1=O` [Compound 63] ([d2Thi][Bip][dD](OtBu)[Phe(4-NH2)]-OH; linker N-4 via Suc), the pIC50 was less than 4.00.

On to `O=C(O)[C@@H]1Cc2ccc(cc2)NC(=O)[C@H](O)[C@@H](O)C(=O)N[C@H](Cc2ccc(F)c(F)c2)C(=O)N[C@@H](Cc2ccc(-c3ccccc3)cc2)C(=O)N[C@H](Cc2ccccc2)C(=O)N1` [Compound 262], for which the pIC50 is 4.52 to 5.00.

With `O=C1CCC(=O)N[C@H](Cc2cccs2)C(=O)N[C@@H](Cc2ccc(OCc3ccccc3)cc2)C(=O)N[C@H](Cc2ccccc2)C(=O)N[C@H](C(=O)O)Cc2ccc(cc2)N1` [Compound 92] ([d2Thi]Y(Bn)[dF][Phe(4-NH2)]-OH; linker N-4 via Suc), the pIC50 was 4.00 to 4.52.

On to `O=C1COc2ccc(cc2)C[C@@H](C(=O)O)NC(=O)[C@@H](Cc2ccc(O)cc2)NC(=O)[C@H](Cc2ccc(-c3ccccc3)cc2)NC(=O)[C@@H](Cc2cccs2)N1` [Compound 534], for which the pIC50 is less than 4.00.

Regarding `O=C1CCC(=O)N[C@H](Cc2cccs2)C(=O)N[C@@H](Cc2ccccc2)C(=O)N[C@H](Cc2ccccc2)C(=O)N[C@H](C(=O)O)Cc2ccc(cc2)N1` [Compound 83] ([d2Thi]F[dF][Phe(4-NH2)]-OH; linker N-4 via Suc), the pIC50 is less than 4.00.

As for `O=C1CCC(=O)N[C@H](Cc2cccs2)C(=O)N[C@@H](Cc2ccc(-c3ccccc3)cc2)C(=O)N[C@H](CCc2ccccc2)C(=O)N[C@H](C(=O)NC2(C(=O)O)CC2)Cc2ccc(cc2)N1` [Compound 451] ([d2Thi][Bip][d(hPhe)][Phe(4-NH2)][Ac3c]-OH; linker N-4 via Suc), the pIC50 is 4.00 to 4.52.

Turning to `O=C(O)C[C@H](Cc1ccccc1)NC(=O)[C@@H]1Cc2ccc(cc2)OCC(=O)N[C@@H](Cc2cccs2)C(=O)N[C@H](Cc2ccc(-c3ccccc3)cc2)C(=O)N[C@@H](CCc2ccccc2)C(=O)N1` [Compound 485], the pIC50 is 4.52 to 5.00.

Consider `O=C1CCC(=O)N[C@H](CCc2ccccc2)C(=O)N[C@@H](Cc2ccc(-c3ccccc3)cc2)C(=O)N[C@H](Cc2ccccc2)C(=O)N[C@H](C(=O)N[C@@H](Cc2cccnc2)C(=O)O)Cc2ccc(cc2)N1` [Compound 403] ([d(hPhe)][Bip][dF][Phe(4-NH2)][3Pal]-OH; linker N-4 via Suc), for which the pIC50 is less than 4.00.

Turning to `O=C1N[C@@H](C(=O)O)Cc2ccc(cc2)NC(=O)[C@H](O)[C@@H](O)C(=O)N[C@H](Cc2cccs2)C(=O)N[C@H](Cc2ccc(-c3ccccc3)cc2)C(=O)N[C@H]1Cc1ccccc1` [Compound 281], the pIC50 is less than 4.00.

With `CC(C)(C)Oc1ccc(C[C@@H]2NC(=O)[C@@H](Cc3cccs3)NC(=O)CCC(=O)Nc3ccc(cc3)C[C@@H](C(=O)O)NC(=O)[C@@H](Cc3ccccc3)NC2=O)cc1` [Compound 86] ([d2Thi]Y(tBu)[dF][Phe(4-NH2)]-OH; linker N-4 via Suc), the pIC50 was less than 4.00.

With `O=C(O)CCCCNC(=O)[C@@H]1Cc2ccc(cc2)NC(=O)CCC(=O)N[C@H](Cc2ccccc2)C(=O)N[C@@H](Cc2ccc(-c3ccccc3)cc2)C(=O)N[C@H](CCc2ccccc2)C(=O)N1` [Compound 461] ([dF][Bip][d(hPhe)][Phe(4-NH2)][Ava]-OH; linker N-4 via Suc), the pIC50 is less than 4.00.

Take `COc1cccc(C[C@H]2NC(=O)[C@H](Cc3cccs3)NC(=O)COc3ccc(cc3)C[C@@H](C(=O)O)NC(=O)[C@H](Cc3ccccc3)NC2=O)c1` [Compound 407]: the pIC50 was less than 4.00.

The values above are taken from patent US8338565B2, “Macrocyclic compounds for inhibition of tumor necrosis factor alpha” (Ensemble Therapeutics Corporation, priority 2008, dated 2012).
